One data set deals with Trypanosoma brucei. In words: DNDI: Inhibition of Human African Trypanosomiasis, SBRI 427, in vitro. The data set is classed as functional, organism-based.
Data set [1] can be described thus: DNDI: Cytotoxicity against L929 mouse fibroblasts, 72 hour. It is filed as toxicity, cell-based. As to conditions: mouse, L929 mouse fibroblasts.
A short description of data set [2]: DNDI: Cytotoxicity against L929 mouse fibroblasts, CYTO-SP, 24 hour. It is filed as toxicity, cell-based. The conditions noted are these: mouse, L929 mouse fibroblasts.
Setting [3] is: Trypanosoma brucei, SBRI 427, read-out: IC50.

The structures appear in SMILES notation. In brackets after ≈: the same amount, converted by molar mass. Several values for one entry are separate records, joined by “and”; a condition that tells them apart may be missing. Equal entries are not always repeated.

What is called IC50 is the concentration needed to halve the response being measured. For `Fc1ccc(-c2cc3nc(-c4ccccc4)cc(NCCCN4CCCC4)n3n2)cc1`, the IC50 with Trypanosoma brucei (setting [3]) came out at 3.65 µg/mL (≈ 8.78 µM). Moreover, in data set [1], the IC50 at 72 h worked out at 6.92 µg/mL (≈ 16.7 µM).
With `Cc1ccc2cccc(Oc3ccc(/C(=N/O)NC4CCCCC4)cn3)c2n1`, the half-maximal inhibitory concentration (IC50) in the data set on Trypanosoma brucei (setting [3]) was 1.08 µg/mL (≈ 2.87 µM). In data set [2], this compound registered an IC50 at 24 h above 50 µg/mL.
On to `Fc1ccc(-c2cc3nc(-c4ccccc4)cc(NCCN4CCOCC4)n3n2)cc1`, for which the IC50 with Trypanosoma brucei (setting [3]) is above 5 µg/mL. Moreover, the IC50 at 72 h in data set [1] is above 10 µg/mL.
For `O/N=C(\NC1CCCCC1)c1ccc(Oc2ccc(Cl)cc2)nc1`, the IC50 in the data set with Trypanosoma brucei (setting [3]) came to 1.2 µg/mL (≈ 3.47 µM). The compound further registered an IC50 at 24 h in data set [2] of 30.8 µg/mL (≈ 89.1 µM).
On to `CO/N=C/c1ccccc1-c1ccccc1`, for which the concentration for half-maximal inhibition (IC50) in the data set on Trypanosoma brucei (setting [3]) was above 5 µg/mL. In data set [2], this compound gave an IC50 at 24 h above 50 µg/mL.
In data set [2], `CC1CCC(N/C(=N\O)c2cccnc2Oc2ccc(-n3cncn3)cc2)CC1` (stereo not given) came in with an IC50 at 24 h above 50 µg/mL.
`CC(C)(C)CN/C(=N\O)c1ccc(Oc2cc(Cl)ccc2Cl)nc1`: the IC50 with Trypanosoma brucei (setting [3]) turned out to be 0.9 µg/mL (≈ 2.44 µM). Moreover, the IC50 at 24 h in data set [2] is above 50 µg/mL.
Take `CCN(CC)CCCNc1cc(-c2ccccc2)nc2cc(-c3cccc(F)c3)nn12`: the IC50 with Trypanosoma brucei (setting [3]) came to 1.05 µg/mL (≈ 2.51 µM). Further, in data set [1], the IC50 at 72 h stood at 2.51 µg/mL (≈ 6.01 µM).
Turning to `CN(C)CCNc1cc(-c2ccccc2)nc2cc(-c3cccc(F)c3)nn12`, the IC50 in the data set on Trypanosoma brucei (setting [3]) worked out at 2.07 µg/mL (≈ 5.51 µM). Also, the IC50 at 72 h in data set [1] worked out at 1.78 µg/mL (≈ 4.74 µM).
Take `Cc1cc(NCCCN2CCCC2=O)n2nc(-c3cccc(F)c3)cc2n1`: the IC50 in the data set with Trypanosoma brucei (setting [3]) is above 5 µg/mL. Also, the concentration for half-maximal inhibition (IC50) at 72 h in data set [1] was above 10 µg/mL.
For `CC(C)(C)c1cc(=O)n2nc(-c3ccc(F)cc3)cc2[nH]1`, in the data set with Trypanosoma brucei (setting [3]), the IC50 was above 5 µg/mL. Further, in data set [1], the IC50 at 72 h was above 10 µg/mL.
With `Cc1cc(N)nn1Cc1coc(-c2ccc(OC(F)(F)F)cc2)n1`, the IC50 in the data set on Trypanosoma brucei (setting [3]) came to 1.18 µg/mL (≈ 3.49 µM). In data set [2], this compound returned an IC50 at 24 h above 50 µg/mL.
For the compound `CCCCNCc1coc(-c2ccc(C(C)(C)C)cc2)n1`, the IC50 with Trypanosoma brucei was 1.84 µg/mL and 0.87 µg/mL. The compound further yielded an IC50 at 24 h in data set [2] of 28.1 µg/mL (≈ 98.1 µM).
For `CN1CCCC1CCNCc1coc(-c2ccc(Br)cc2)n1` (stereo not given), the IC50 with Trypanosoma brucei was 1.22 µg/mL and 0.45 µg/mL. This compound also returned an IC50 at 24 h in data set [2] of 25.1 µg/mL (≈ 68.9 µM).
`CC(C)(C)OC(=O)N1CCN(c2cc(C(C)(C)C)nc3cc(-c4ccc(F)cc4)nn23)CC1`: in the data set on Trypanosoma brucei (setting [3]), the concentration for half-maximal inhibition (IC50) is above 5 µg/mL. In data set [1], this compound gave an IC50 at 72 h above 10 µg/mL.
In data set [2], `COc1cc(C)ccc1Oc1nc(C)ccc1/C(=N/O)NCC(C)C` came in with an IC50 at 24 h above 50 µg/mL.
`Cc1ccc(Oc2nc(C)ccc2/C(=N/O)NC2CCCCC2)c(C)c1`: the IC50 in the data set on Trypanosoma brucei is 0.78 µg/mL and 0.28 µg/mL. In addition, the IC50 at 24 h in data set [2] came to 34 µg/mL (≈ 96.2 µM).
Consider `CCO/N=C/c1ccc(OC)cc1`, for which, in the data set on Trypanosoma brucei (setting [3]), the IC50 was above 5 µg/mL. Further, the half-inhibitory concentration (IC50) at 24 h in data set [2] is above 50 µg/mL.
For the compound `Fc1cccc(-c2cc3nc(-c4ccccc4)cc(NCCN4CCOCC4)n3n2)c1`, the IC50 with Trypanosoma brucei (setting [3]) is above 5 µg/mL. The IC50 at 72 h in data set [1] was above 10 µg/mL.
Turning to `COc1ccc(/C=N/OCc2ccccc2)cc1`, in the data set on Trypanosoma brucei (setting [3]), the IC50 is above 5 µg/mL. In data set [2], the IC50 at 24 h was above 50 µg/mL.
Turning to `Cc1cc(N2CCN(C(=O)OC(C)(C)C)CC2)n2nc(-c3cccc(F)c3)cc2n1`, the IC50 in the data set on Trypanosoma brucei (setting [3]) is above 5 µg/mL. For the same compound, the IC50 at 72 h in data set [1] was above 10 µg/mL.
`CC(C)CO/N=C/c1ccccc1-c1ccccc1`: the IC50 in the data set with Trypanosoma brucei (setting [3]) is above 5 µg/mL. Besides, in data set [2], the IC50 at 24 h was above 50 µg/mL.
In turn, `Cc1ccc(Oc2ccc(/C(=N/O)NCC3CC3)cn2)c(C)c1` gave an IC50 at 24 h in data set [2] above 50 µg/mL.
In the case of `Fc1cccc(-c2cc3nc(-c4ccccc4)cc(NCCN4CCCC4)n3n2)c1`, the IC50 in the data set with Trypanosoma brucei (setting [3]) was 2.22 µg/mL (≈ 5.53 µM). The compound also gave an IC50 at 72 h in data set [1] of 1.54 µg/mL (≈ 3.84 µM).
As for `CN(C)CC(C)(C)CNc1cc(-c2ccccc2)nc2cc(-c3ccc(F)cc3)nn12`, the half-inhibitory concentration (IC50) with Trypanosoma brucei (setting [3]) is above 5 µg/mL. In data set [1], this compound came in with an IC50 at 72 h above 10 µg/mL.
In the case of `COc1ccc(-c2cc3[nH]c(-c4ccccc4)cc(=O)n3n2)cc1`, the IC50 in the data set with Trypanosoma brucei (setting [3]) is above 5 µg/mL. This compound had an IC50 at 72 h in data set [1] above 10 µg/mL.
Compound `Cc1ccc(/C(=N/O)NC2CCC(C)CC2)c(OCc2ccccn2)n1` (stereo not given) displayed an IC50 at 24 h in data set [2] above 50 µg/mL.
As to `CC(C)(C)OC(=O)N1CCC(Nc2cc(-c3ccccc3)nc3cc(-c4ccc(F)cc4)nn23)C1` (stereo not given), the IC50 in the data set with Trypanosoma brucei (setting [3]) is above 5 µg/mL. This compound yielded an IC50 at 72 h in data set [1] above 10 µg/mL.
On to `C=CCO/N=C/c1ccccc1-c1ccccc1`, for which the IC50 with Trypanosoma brucei (setting [3]) was above 5 µg/mL. For the same compound, the IC50 at 24 h in data set [2] was above 50 µg/mL.
Regarding `CC1CC(NCc2coc(-c3ccc(C(F)(F)F)cc3)n2)CC(C)(C)C1` (stereo not given), the IC50 in the data set on Trypanosoma brucei was 0.54 µg/mL (≈ 1.47 µM); with Trypanosoma brucei (setting [3]), 1.07 µg/mL (≈ 2.92 µM). In data set [2], this compound gave an IC50 at 24 h above 50 µg/mL.
In the case of `CC1CCCCN1CCCNCc1coc(-c2ccc(Cl)cc2Cl)n1` (stereo not given), the IC50 with Trypanosoma brucei was 2.68 µg/mL and 1.13 µg/mL. The same compound gave an IC50 at 24 h in data set [2] of 42.2 µg/mL (≈ 110 µM).
Consider `Fc1cccc(-c2cc3nc(-c4ccccc4)cc(NCCN4CCCCC4)n3n2)c1`, for which the concentration for half-maximal inhibition (IC50) in the data set on Trypanosoma brucei (setting [3]) worked out at 3.82 µg/mL (≈ 9.19 µM). Also, the IC50 at 72 h in data set [1] was found to be 9.91 µg/mL (≈ 23.8 µM).
With `Cc1cc(Oc2ccc(/C(=N/O)NCC3CC3)cn2)cc(C(C)C)c1`, half-maximal inhibition in data set [2] (IC50 at 24 h) was put at 27 µg/mL (≈ 79.5 µM).
As for `COc1ccc(/C(Cc2ccccc2)=N/O)cc1`, the IC50 in the data set on Trypanosoma brucei (setting [3]) is above 5 µg/mL. Further, in data set [2], the IC50 at 24 h is above 50 µg/mL.
Turning to `Cc1cc(=O)n2nc(-c3cccc(F)c3)cc2[nH]1`, the IC50 with Trypanosoma brucei (setting [3]) is above 5 µg/mL. For the same compound, in data set [1], the IC50 at 72 h was above 10 µg/mL.
As for `Cc1cc(NC2CCN(C(=O)OC(C)(C)C)C2)n2nc(-c3cccc(F)c3)cc2n1` (stereo not given), in the data set with Trypanosoma brucei (setting [3]), the IC50 is above 5 µg/mL. The compound also displayed an IC50 at 72 h in data set [1] above 10 µg/mL.
`COc1ccc(/C=N/OCC(C)C)cc1`: the IC50 in the data set with Trypanosoma brucei (setting [3]) is above 5 µg/mL. The compound further gave an IC50 at 24 h in data set [2] above 50 µg/mL.

These data come from ChEMBL document CHEMBL1857833, “Screening and optimization of specific chemical series against human African Trypanosomiasis (HAT)”.
